According to patent US8569509B2, “Thiazole-4-carboxylic acid esters and thioesters as plant protection agents” (priority 2008, dated 2013):
Read-outs that look alike come from different tables or passages of the source.

Key:
[1] = log P determination (HPLC, calibration with unbranched alkan-2-ones); type: physicochemical
Procedure: The calibration is carried out using unbranched alkan-2-ones (having 3 to 16 carbon atoms) with known log P values (determination of the log P values by the retention times using linear interpolation between two successive alkanones). The lambda-maX values were determined in the maxima of the chromatographic signals using the UV spectra from 200 nm to 400 nm.

Phytophthora infestans = type: in vivo; conditions: tomato plants, protective, application rate 10 ppm, evaluation 3 days after inoculation
Plasmopara viticola [2] = test: Plasmopara test (grapevine)/protective; type: in vivo; conditions: grapevine plants, protective, application rate 1 ppm, evaluation 6 days after inoculation
Procedure: Plasmopara Test (Grapevine)/Protective
After the spray coating has dried on, the plants are inoculated with an aqueous spore suspension of Plasmopara viticola and then remain in an incubation cabin at about 20° C. and 100% relative atmospheric humidity for 1 day. The plants are then placed in a greenhouse at about 21° C. and about 90% atmospheric humidity for 4 days. The plants are then moistened and placed in an incubation cabin for 1 day.
Evaluation is carried out 6 days after the inoculation.

Plasmopara viticola [3] = test: Plasmopara test (grapevine)/curative; type: in vivo; conditions: grapevine plants, curative, application rate 100 ppm, evaluation 6 days after inoculation
[4] = * LC-MS determination in the acidic range at pH 2.7, mobile phases 0.1% aqueous formic acid and acetonitrile (0.1% formic acid), linear gradient 10% to 95% acetonitrile, reversed-phase C 18 HPLC
[5] = pH 2.7, read-out: log P (pH 2.7)
[6] = * LC-MS determination in the acidic range at pH 2.7, 0.1% aqueous formic acid and acetonitrile, linear gradient 10% to 95% acetonitrile

In the case of `Cc1cc(C(F)(F)F)nn1CC(=O)N1CCC(c2nc(C(=O)OCc3ccccc3Cl)cs2)CC1` [Ex. 23], the chromatographic logP ([1]; reversed-phase (C18) HPLC column, * LC-MS determination in the acidic range, pH 2.7, 0.1% aqueous formic acid and acetonitrile, linear gradient 10% to 95% acetonitrile, read-out: log p) is reported as 3.7 and the Efficacy in % (Phytophthora infestans) is reported as 94%.

With `Cc1cc(C(F)(F)F)nn1CC(=O)N1CCC(c2nc(C(=O)N(C)C3CCCc4ccccc43)cs2)CC1` (stereo not drawn) [drawing 26, reference compound] the Efficacy in % (Plasmopara viticola [2]) was 72%.

`Cc1cc(C(F)(F)F)nn1CC(=O)N1CCC(c2nc(C(=O)NCc3ccccc3Cl)cs2)CC1` [reference compound] showed an Efficacy in % (Phytophthora infestans) of 65%.

Compound `Cc1cc(C(F)(F)F)nn1CC(=O)N1CCC(c2nc(C(=O)OC3CCCc4ccccc43)cs2)CC1` (stereo not drawn) [Ex. 6] has a chromatographic logP ([1]; reversed-phase (C18) HPLC column, ** determination in the acidic range, pH 2.3, 0.1% aqueous phosphoric acid and acetonitrile, linear gradient 10% to 95% acetonitrile, read-out: log p) of 4.01, an Efficacy in % (Plasmopara viticola [2]) of 91% and an Efficacy in % (Plasmopara viticola [3]) of 84%.

`Cc1cc(C(F)(F)F)nn1CC(=O)N1CCC(c2nc(C(=O)N(C)C3CCCc4ccccc43)cs2)CC1` (stereo not drawn) [drawing 28, reference compound] showed an Efficacy in % (Plasmopara viticola [3]) of 37%.

Work on `CCOC(=O)c1csc(C2CCN(C(=O)C(C)(C)n3nc(C)cc3C)CC2)n1` [IV-4, Ethyl 2-{1-[2-(3,5-dimethyl-1H-pyrazol-1-yl)-2-methylpropanoyl]piperidin-4-yl}-1,3-thiazole-4-carboxylate] yielded a chromatographic logP ([1]; pH 7.8, read-out: log P (pH 7.8)) of 2.34.

For `Cc1cc(C(F)(F)F)nn1CC(=O)N1CCC(c2nc(C(=O)Oc3cccc4c3CCCC4)cs2)CC1` [compound 792], the log p [1, 4] was 4.30*.

For `Cc1cc(C(F)(F)F)nn1CC(=O)N1CCCC(c2nc(C(=O)OCc3cccs3)cs2)C1` (stereo not drawn) [compound 293], the log p ([1]; * LC-MS determination in the acidic range, pH 2.7, 0.1% aqueous formic acid / acetonitrile gradient) was 3.23*.

With `Cc1cc(C(F)(F)F)nn1CC(=O)N1CCC(c2nc(C(=O)OCc3ccc(C(F)(F)F)cc3)cs2)CC1` [compound 776] the log p [1, 4] was 3.86*.

With `Cc1cc(C)n(C(C)(C)C(=O)N2CCC(c3nc(C(=O)OC4CC(C)CCC4C(C)C)cs3)CC2)n1` (stereo not drawn) [compound 797] the log p [1, 4] was 5.51*.

In the case of `CC(C)c1cc(C(F)(F)F)n(CC(=O)O)n1` [V-5, [3-Isopropyl-5-(trifluoromethyl)-1H-pyrazol-1-yl]acetic acid], the chromatographic logP [1, 5] is reported as 2.05.

In the case of `Cc1cc(C)n(C(C)(C)C(=O)N2CCC(c3nc(C(=O)OC4CCCCC4)cs3)CC2)n1` [compound 370], the log p [1, 6] is reported as 3.78*.

For `CCOC(=O)c1csc(C2CCCNC2)n1` (stereo not drawn) [VI-2, 3-[4-(Ethoxycarbonyl)-1,3-thiazol-2-yl]piperidinium chloride], the chromatographic logP [1, 5] was 0.54.

With `O=C(OC1CCCCC1)c1csc(C2CCN(C(=O)Cn3nc(C(F)(F)F)cc3C(F)(F)F)CC2)n1` [compound 772, Cyclohexyl 2-(1-{[3,5-bis(trifluoromethyl)-1H-pyrazol-1-yl]acetyl}piperidin-4-yl)-1,3-thiazole-4-carboxylate] the chromatographic logP [1, 5] was 4.39 and the chromatographic logP ([1]; reversed-phase C18 HPLC column, * LC-MS determination in the acidic range at pH 2.7, mobile phases 0.1% aqueous formic acid and acetonitrile (0.1% formic acid), linear gradient 10% to 95% acetonitrile, reversed-phase C 18 HPLC, read-out: log p) was 4.39.

With `Cc1cc(C)n(C(C)(C)C(=O)N2CCC(c3nc(C(=O)Oc4ccc(F)cc4)cs3)CC2)n1` [compound 413] the log p [1, 6] was 3.21*.

For `C=CC(CCC)OC(=O)c1csc(C2CCN(C(=O)C(C)(C)n3nc(C)cc3C)CC2)n1` (stereo not drawn) [compound 801], the log p [1, 4] was 3.78*.

In the case of `Cc1cc(C(F)(F)F)nn1CC(=O)N1CCC(c2nc(C(=O)Oc3cccc4ccccc34)cs2)CC1` [compound 227, 1-Naphthyl 2-(1-{[5-methyl-3-(trifluoromethyl)-1H-pyrazol-1-yl]acetyl}piperidin-4-yl)-1,3-thiazole-4-carboxylate], the chromatographic logP [1, 5] is reported as 3.75 and the chromatographic logP ([1]; reversed-phase (C18) HPLC column, * LC-MS determination in the acidic range, pH 2.7, 0.1% aqueous formic acid / acetonitrile gradient, read-out: log p) is reported as 3.75.

In the case of `COc1cccc(OC)c1OC(=O)c1csc(C2CCN(C(=O)Cn3nc(C(F)(F)F)cc3C)CC2)n1` [compound 816], the log p [1, 4] is reported as 3.12*.

In the case of `Cc1cc(C)n(C(C)(C)C(=O)N2CCC(c3nc(C(=O)OC4CC(C)CC(C(C)C)C4)cs3)CC2)n1` (stereo not drawn) [compound 802], the log p [1, 4] is reported as 5.58*.
